In brackets after ≈: the same amount, converted by molar mass. Read-outs that look alike come from different tables or passages of the source.
What was measured:
B16-F1 cells = assay: Melanogenesis inhibition (skin lightening) assay in cultured melanocyte cells, secreted melanin OD405; assay type: cell-based; parameters: Melanogenesis Inhibition Activity: scale not given here; details: for Melanogenesis Inhibition Activity: B16-F1 cells, 96 hours
Procedure: These were conducted using cultured melanocyte cells exposed to dilutions of the best materials, and compared with kojic acid, a brown skin lightener. The degree of melanin production was inversely proportional to the skin lightener activity. Any cytotoxic effect of the test materials is reflected in a decrease in melanin formation. Each 96 well assay plate included a solvent control and a blank control. […] When the cell cultures were 50 to 80% confluent, the growth medium was removed from the flasks and the cultures rinsed with 10 ml of HBSS. 2 ml of trypsin/EDTA solution was added and the flasks were incubated at 37° C.+/−1° C. for 2 to 5 minutes. When the cells started to dislodge, the flask was rapped sharply against the palm of the hand and approximately 5 ml of assay medium added to neutralise the trypsin. The concentration of cells was determined by counting an aliquot of the stock cell suspension in a haemocytometer. A seeding suspension of 5×10^4 cells/ml was prepared in assay medium. One hundred microlitres of the seeding cell suspension was added to the appropriate wells on each 96 well plate. One hundred microlitres of growth medium was added to the outer wells to maintain humidity. The cells were incubated at 37+/−1° C. in a humidified atmosphere containing 5+/−1% CO2 in air for 24 hours. Based on the information available for the test article, eight decreasing doses were selected and used in the assay. […] In the case of the mixture of protocatechuic acid and arbutin, a 1 to 1 w/w mixture of each was used in each assay with the concentration of each in the highest dose assay being 2.5 mg/ml, and then pro rata in the dilutions assayed in the other 7 assays. […] The test article and positive control was tested by treating six wells per dilution of B16-F1 cells seeded approximately 24 hours earlier. Prior to treatment the medium was removed, and 200 μl of the pre-warmed (37 +/−1° C.) test article dilutions, positive control dilutions and solvent control, were added to the appropriate wells. All test article concentrations were dosed into a single outer well (200 μl) of the corresponding plate to serve as a turbidity control. The remaining wells around the edge of the plate, designated as blanks, received 200 μl of assay medium prior to incubation. Following dosing, the plates were incubated at 37+/−1° C. for 96 hours +/−2 hours. After exposure, 150 μl of each treatment solution (containing any secreted melanin) was removed and transferred to the corresponding wells of a new 96 well plate (melanin production plate). Turbidity controls were also transferred. The absorbance of the melanin present in the melanin production plates was measured at 405 nm (OD405) with an Anthos 2010™microplate reader. The mean of the six OD405 values for each concentration of test article and positive control was calculated. The turbidity control values were subtracted to obtain a correct OD405 value. The mean of the six OD405 values for the corresponding negative or solvent control were calculated by subtracting the blank control value. The corrected OD405 values of the test article or positive control was divided by the corrected OD405 value for the negative or solvent control to obtain a melanin production ratio.

[1] = Solubilities of compounds of the invention; assay type: physicochemical
[2] = Taste, odour and colour of compounds of the invention; assay type: physicochemical; details: determined at effective concentrations
[3] = aqueous buffer, water, pH 7.0, read-out: Solubility Water (pH 7.0)
[4] = ethanol, organic solvent or mixture, read-out: Solubility Ethanol
[5] = ethylene glycol, organic solvent or mixture, read-out: Solubility Ethylene Clycol
[6] = oil, oil or lipid, read-out: Solubility Oil

Taste/Odour [2]	Colour (Solution in Ethanol) [2]	Compound	Melanogenesis Inhibition Activity (B16-F1 cells; 0.015 mg/ml)	Melanogenesis Inhibition Activity (B16-F1 cells; 0.05 mg/ml)	Melanogenesis Inhibition Activity (B16-F1 cells; 0.15 mg/ml)	Melanogenesis Inhibition Activity (B16-F1 cells; 0.5 mg/ml)	Melanogenesis Inhibition Activity (B16-F1 cells; 1.5 mg/ml)	Melanogenesis Inhibition Activity (B16-F1 cells; 5 mg/ml)	Melanogenesis Inhibition Activity (B16-F1 cells; 15 mg/ml)	skin lightening effect when used together with another skin lightening agent (B16-F1 cells; arbutin used together with protocatechuic acid)	solubility [1, 3]	solubility [1, 4]	solubility [1, 5]	solubility [1, 6]
Smoky	Colourless	CCc1ccc(O)c(OC)c1 [Ethylguaiacol, 4-Ethyl-2-methoxyphenol]	2	8	14	17	0	0	0	–	–	–	250 mg/mL (≈ 1640 mM)	–
–	–	O=c1cc(CO)occ1O [Kojic acid, reference compound]	0	0	0	2	57	170	255	–	–	–	–	–
Cloves	Colourless	C=Cc1ccc(O)c(OC)c1 [Vinylguaiacol, 4-Vinyl-2-methoxyphenol]	3	6	10	1	0	0	0	–	> 2 mg/mL	> 100 mg/mL	–	> 50 mg/mL
–	–	OC[C@H]1O[C@@H](Oc2ccc(O)cc2)[C@H](O)[C@@H](O)[C@@H]1O [Arbutin, reference compound]	0	1	4	11	17	14	11	–	–	–	–	–

Compound	Taste/Odour [2]	Colour (Solution in Ethanol) [2]	Melanogenesis Inhibition Activity (B16-F1 cells; 0.015 mg/ml)	Melanogenesis Inhibition Activity (B16-F1 cells; 0.05 mg/ml)	Melanogenesis Inhibition Activity (B16-F1 cells; 0.15 mg/ml)	Melanogenesis Inhibition Activity (B16-F1 cells; 0.5 mg/ml)	Melanogenesis Inhibition Activity (B16-F1 cells; 1.5 mg/ml)	Melanogenesis Inhibition Activity (B16-F1 cells; 5 mg/ml)	Melanogenesis Inhibition Activity (B16-F1 cells; 15 mg/ml)	skin lightening effect when used together with another skin lightening agent (B16-F1 cells; arbutin used together with protocatechuic acid)	solubility [1, 3]	solubility [1, 4]	solubility [1, 5]	solubility [1, 6]
O=C(O)c1ccc(O)c(O)c1 [Protocatechuic acid, 3,4-Dihydroxybenzoic acid]	None	Colourless	0.5	2	1	3	7	0	0	synergistic skin lightening effect	> 300 mg/mL	> 500 mg/mL	250 mg/mL (≈ 1620 mM)	< 0.2 mg/mL
